Measurements reported in ChEMBL document CHEMBL3885861, “Open TG-GATES”.

Species: Rattus norvegicus
Assay: Open TG-GATES - Regimen: Single
Type: toxicity, organism-based, Sprague-Dawley
Parameters: regimen Single, gender Male, age 6 weeks
Conditions: in vivo, ip, 0.1 mg/kg, route intraperitoneal injection, dose 100 ug/Kg, dose level Middle; for APTT / Bas / Eos / Fbg / Hb / Ht / Lym / MCH / MCHC / MCV / Mono / Neu / PT / Plat / RBC / Ret / WBC: tissue Blood; for KIDNEY_L / KIDNEY_R / KIDNEY_TOTAL: tissue Kidney; for LIVER: tissue Liver; for A/G / ALP / ALT / AST / BUN / CRE / Ca / Cl / DBIL / GLC / IP / K / LDH / Na / PL / RALB / TBIL / TC / TG / TP / gamma-GTP: tissue Plasma

CC(=O)N[C@H]1[C@@H](O[C@@H]2O[C@H](CC(O)[C@H]3O[C@@H](n4ccc(=O)[nH]c4=O)[C@H](O)[C@@H]3O)[C@H](O)[C@H](O)[C@H]2NC(=O)/C=C/CC(C)C)O[C@H](CO)[C@@H](N)[C@@H]1O (some centres not stated) [TUNICAMYCIN]
TERMINAL_BW (3 h): 221.2 g | APTT (3 h): 23.1 s | Bas (3 h): 0% | Eos (3 h): 0.6% | Fbg (3 h): 292.6 mg/dL | Hb (3 h): 12.8 g/dL | Ht (3 h): 39.3% | Lym (3 h): 71.2% | MCH (3 h): 20.2 pg | MCHC (3 h): 32.6% | MCV (3 h): 62 fL | Mono (3 h): 3.2% | Neu (3 h): 24.2% | PT (3 h): 15.9 s | Plat (3 h): 122.6 x10_4/uL | RBC (3 h): 636.4 x10_4/ul | Ret (3 h): 8.1% | WBC (3 h): 97.2 x10_2/uL | KIDNEY_L (3 h): 0.9 g | KIDNEY_R (3 h): 0.9 g | KIDNEY_TOTAL (3 h): 1.9 g | LIVER (3 h): 10.4 g | A/G (3 h): 1.2 | ALP (3 h): 1559 IU/L | ALT (3 h): 38.8 IU/L | AST (3 h): 76.8 IU/L | BUN (3 h): 13 mg/dL | CRE (3 h): 0.2 mg/dL | Ca (3 h): 10.6 mg/dL | Cl (3 h): 106.8 meq/L | DBIL (3 h): 0 mg/dL | GLC (3 h): 167.2 mg/dL | IP (3 h): 8.2 mg/dL | K (3 h): 4.2 meq/L | LDH (3 h): 158.2 IU/L | Na (3 h): 142.8 meq/L | PL (3 h): 122.8 mg/dL | RALB (3 h): 2.9 g/dL | TBIL (3 h): 0.012 mg/dL | TC (3 h): 70.4 mg/dL | TG (3 h): 70.2 mg/dL | TP (3 h): 5.3 g/dL | gamma-GTP (3 h): 1.4 IU/L | TERMINAL_BW (6 h): 216.8 g | APTT (6 h): 22.4 s | Bas (6 h): 0% | Eos (6 h): 0.4% | Fbg (6 h): 315.6 mg/dL | Hb (6 h): 13.2 g/dL | Ht (6 h): 40.1% | Lym (6 h): 67% | MCH (6 h): 21 pg | MCHC (6 h): 33% | MCV (6 h): 63.7 fL | Mono (6 h): 2% | Neu (6 h): 30% | PT (6 h): 15.7 s | Plat (6 h): 110 x10_4/uL | RBC (6 h): 630.4 x10_4/ul | Ret (6 h): 7.9% | WBC (6 h): 95.8 x10_2/uL | KIDNEY_L (6 h): 1 g | KIDNEY_R (6 h): 1 g | KIDNEY_TOTAL (6 h): 1.9 g | LIVER (6 h): 9.2 g | A/G (6 h): 1.2 | ALP (6 h): 1277.4 IU/L | ALT (6 h): 39.8 IU/L | AST (6 h): 70.4 IU/L | BUN (6 h): 11 mg/dL | CRE (6 h): 0.2 mg/dL | Ca (6 h): 10.8 mg/dL | Cl (6 h): 106.2 meq/L | DBIL (6 h): 0 mg/dL | GLC (6 h): 175 mg/dL | IP (6 h): 9.3 mg/dL | K (6 h): 4.2 meq/L | LDH (6 h): 161.6 IU/L | Na (6 h): 141.4 meq/L | PL (6 h): 127.2 mg/dL | RALB (6 h): 3 g/dL | TBIL (6 h): 0.022 mg/dL | TC (6 h): 74 mg/dL | TG (6 h): 51.8 mg/dL | TP (6 h): 5.3 g/dL | gamma-GTP (6 h): 1.2 IU/L | TERMINAL_BW (9 h): 221.7 g | APTT (9 h): 23.2 s | Bas (9 h): 0% | Eos (9 h): 1% | Fbg (9 h): 305.8 mg/dL | Hb (9 h): 12.9 g/dL | Ht (9 h): 39.8% | Lym (9 h): 81% | MCH (9 h): 20.7 pg | MCHC (9 h): 32.4% | MCV (9 h): 64 fL | Mono (9 h): 2.2% | Neu (9 h): 15.4% | PT (9 h): 15.8 s | Plat (9 h): 123.1 x10_4/uL | RBC (9 h): 623 x10_4/ul | Ret (9 h): 7.8% | WBC (9 h): 86.6 x10_2/uL | KIDNEY_L (9 h): 0.9 g | KIDNEY_R (9 h): 1 g | KIDNEY_TOTAL (9 h): 1.9 g | LIVER (9 h): 9.2 g | A/G (9 h): 1.2 | ALP (9 h): 1517.2 IU/L | ALT (9 h): 35.6 IU/L | AST (9 h): 71 IU/L | BUN (9 h): 12.4 mg/dL | CRE (9 h): 0.1 mg/dL | Ca (9 h): 10.9 mg/dL | Cl (9 h): 106.2 meq/L | DBIL (9 h): 0 mg/dL | GLC (9 h): 173.6 mg/dL | IP (9 h): 9.2 mg/dL | K (9 h): 4.2 meq/L | LDH (9 h): 137.4 IU/L | Na (9 h): 141.8 meq/L | PL (9 h): 124.8 mg/dL | RALB (9 h): 2.9 g/dL | TBIL (9 h): 0.014 mg/dL | TC (9 h): 70.2 mg/dL | TG (9 h): 76 mg/dL | TP (9 h): 5.3 g/dL | gamma-GTP (9 h): 1 IU/L | TERMINAL_BW (24 h): 228.5 g | APTT (24 h): 22.4 s | Bas (24 h): 0% | Eos (24 h): 0.8% | Fbg (24 h): 332.8 mg/dL | Hb (24 h): 13.3 g/dL | Ht (24 h): 41.4% | Lym (24 h): 80.6% | MCH (24 h): 19.9 pg | MCHC (24 h): 32% | MCV (24 h): 62 fL | Mono (24 h): 2.6% | Neu (24 h): 15.2% | PT (24 h): 15.8 s | Plat (24 h): 105.4 x10_4/uL | RBC (24 h): 668 x10_4/ul | Ret (24 h): 7.2% | WBC (24 h): 84.3 x10_2/uL | KIDNEY_L (24 h): 0.9 g | KIDNEY_R (24 h): 1 g | KIDNEY_TOTAL (24 h): 1.9 g | LIVER (24 h): 10.2 g | A/G (24 h): 1.2 | ALP (24 h): 1529.6 IU/L | ALT (24 h): 46.2 IU/L | AST (24 h): 74.2 IU/L | BUN (24 h): 15.2 mg/dL | CRE (24 h): 0.1 mg/dL | Ca (24 h): 10.5 mg/dL | Cl (24 h): 105.4 meq/L | DBIL (24 h): 0 mg/dL | GLC (24 h): 181 mg/dL | IP (24 h): 7.3 mg/dL | K (24 h): 4.2 meq/L | LDH (24 h): 152.8 IU/L | Na (24 h): 142 meq/L | PL (24 h): 143.8 mg/dL | RALB (24 h): 3.1 g/dL | TBIL (24 h): 0.014 mg/dL | TC (24 h): 77.6 mg/dL | TG (24 h): 78.2 mg/dL | TP (24 h): 5.6 g/dL | gamma-GTP (24 h): 1.4 IU/L
